In patent US9637460B2, “Isotopically enriched arylsulfonamide CCR3 antagonists” (Axikin Pharmaceuticals, Inc., priority 2012, dated 2017):
Like-named read-outs stand apart in the source and are kept apart here.

Columns and labels:
[1] = Pharmacokinetic studies in rats; conditions: rat, in vivo, 3 mg/kg, 3 mg/kg in EtOH/Solutol/H2O formulation
Description: Pharmacokinetic properties of 4-(3,5-dichloro-2,4,6-trideuteriumphenoxy)-3-(3-oxo-piperazine-1-sulfonyl)-2,5,6-trideuteriumbenzonitrile 36 and 4-(3,5-dichlorophenoxy)-3-(3-oxo-piperazine-1-sulfonyl)benzonitrile C1 were determined using rats. Animals were randomized into two groups, each having 3 rats. 4-(3,5-Dichloro-2,4,6-trideuteriumphenoxy)-3-(3-oxo-piperazine-1-sulfonyl)-2,5,6-trideuteriumbenzonitrile 36 and 4-(3,5-dichlorophenoxy)-3-(3-oxo-piperazine-1-sulfonyl)benzonitrile C1 were administered at 3 mg/kg in EtOH/Solutol/H2O formulations. Pharmacokinetic parameters of 4-(3,5-dichloro-2,4,6-trideuteriumphenoxy)-3-(3-oxo-piperazine-1-sulfonyl)-2,5,6-trideuteriumbenzonitrile 36 and 4-(3,5-dichlorophenoxy)-3-(3-oxo-piperazine-1-sulfonyl)benzonitrile C1 are summarized in Table 2. 4-(3,5-dichlorophenoxy)-3-(3-oxo-piperazine-1-sulfonyl)benzonitrile C1 was synthesized according to the procedure as described in U.S. Pat. App. Pub. No.: US 2011/0218207, the disclosure of which is incorporated herein by reference in its entirety.

Row | Cmax ([1]; Rat 1) [ng/mL] | Tmax ([1]; Rat 1) [h] | half-life ([1]; Rat 1) [h] | AUC ([1]; Rat 1, read-out: AUC) [ng·h/mL] | AUC ([1]; Rat 1, read-out: AUCnorm) [ng·h/mL] | Cmax ([1]; Rat 2) [ng/mL] | Tmax ([1]; Rat 2) [h] | half-life ([1]; Rat 2) [h] | AUC ([1]; Rat 2, read-out: AUC) [ng·h/mL] | AUC ([1]; Rat 2, read-out: AUCnorm) [ng·h/mL] | Cmax ([1]; Rat 3) [ng/mL] | Tmax ([1]; Rat 3) [h] | half-life ([1]; Rat 3) [h] | AUC ([1]; Rat 3, read-out: AUC) [ng·h/mL] | AUC ([1]; Rat 3, read-out: AUCnorm) [ng·h/mL] | melting point [°C] | SMILES
1 | 166 | 2 | 3.3 | 820 | 273 | 46.3 | 4 | 1.12 | 272 | 90.6 | 128 | 0.3 | 1.51 | 490 | 163 | 207 to 210 | [2H]c1c(Cl)c([2H])c(Oc2c([2H])c([2H])c(C#N)c([2H])c2S(=O)(=O)N2CCNC(=O)C2)c([2H])c1Cl [Compound 36, 4-(3,5-dichloro-2,4,6-trideuteriumphenoxy)-3-(3-oxo-piperazine-1-sulfonyl)-2,5,6-trideuteriumbenzonitrile]
2 | 34.4 | 2 | 5.52 | 200 | 66.6 | 65.8 | 4 | 3.72 | 450 | 150 | 59.9 | 2 | 4.04 | 317 | 106 |  | N#Cc1ccc(Oc2cc(Cl)cc(Cl)c2)c(S(=O)(=O)N2CCNC(=O)C2)c1 [Compound C1, 4-(3,5-dichlorophenoxy)-3-(3-oxo-piperazine-1-sulfonyl)benzonitrile, reference compound]
